Where “and” joins values, the source holds several entries; their conditions need not be identical. Identical values can stand only once. Entries after “also recorded” stand apart in the source; their conditions may differ. Like-named read-outs stand apart in the source and are kept apart here.
Experiments:
spinal alpha-2 receptors = format: in vivo, rat
Sprague-Dawley rats [1] = assay: Effect on analgesia produced by a single spinal dose of morphine (tail flick and paw pressure tests); format: in vivo, rat
Sprague-Dawley rats [2] = assay: Chronic tolerance to spinal morphine: daily intrathecal injection for 5 days, cumulative dose-response curves on day 6 (tail flick and paw pressure tests); format: in vivo, rat
Sprague-Dawley rats [3] = assay: Acute tolerance to spinal morphine: three successive intrathecal injections at 90 minute intervals, cumulative morphine dose-response curves 24 hours later (tail flick and paw pressure tests); format: in vivo, rat; details: for development of acute tolerance to morphine: ultra-low dose administration, intrathecal
Sprague-Dawley rats [4] = assay: Reversal of pre-existing morphine analgesic tolerance by ultra-low dose atipemazole (tail flick and paw pressure tests)
mice = details: cited from earlier work
mouse = details: in vivo; cited from earlier work
[5] = group receiving repeated morphine injections (15 μg x 3) vs saline-treated control
[6] = saline-treated control group, cumulative intrathecal dose-response curve 24 hours after treatment
[7] = group receiving chronic morphine alone (15 μg for 10 days)
[8] = group receiving morphine (15 μg for 10 days) with atipemazole 0.8 ng from day 6 for 5 days
[9] = idazoxan 0.08 ng with morphine 15 μg intrathecal
[10] = idazoxan ultra-low doses (0.008, 0.016, 0.08 ng) with morphine 15 μg x 3
[11] = mirtazapine 2 μg with clonidine 13.3 μg intrathecal
[12] = mirtazapine 0.02 ng co-injection with morphine 15 μg x 3
[13] = mirtazapine 0.02 ng with morphine 15 μg x 3
[14] = single mirtazapine exposure 0.02 ng 30 minutes prior to repeated morphine

Structure (SMILES): Clc1cccc(Cl)c1N=C1NCCN1 [clonidine]
- analgesic response to clonidine, paw pressure test (spinal alpha-2 receptors; rat, in vivo): lesser effect
- analgesic response to clonidine, tail flick test (spinal alpha-2 receptors; rat, in vivo): maximal analgesic response

Structure (SMILES): CN1CC[C@]23c4c5ccc(O)c4O[C@H]2[C@@H](O)C=C[C@H]3[C@H]1C5 [morphine]
- time of peak analgesia after a single dose of morphine (Sprague-Dawley rats [1]; morphine 15 μg intrathecal, tail flick and paw pressure tests): 30 min
- increase in morphine ED50 values, both tests (Sprague-Dawley rats [2]; chronic treatment with morphine 15 μg/day for 5 days): ~8 fold
- ED50 values for morphine in the control group (Sprague-Dawley rats [2]; group that had received atipemazole alone (0.8 ng/day) for 5 days, day 6, tail flick and paw pressure tests): approximately 5 μg
- time course of analgesic response on day 5 (Sprague-Dawley rats [2]; morphine 15 μg alone at conclusion of chronic treatment): drastically reduced
- analgesic response to morphine on day 1 (Sprague-Dawley rats [2]; morphine 15 μg intrathecal, 30 minutes after administration): maximal level
- effect of morphine at 60 minutes post injection, both tests (Sprague-Dawley rats [2]; morphine 15 μg/day alone): very much reduced
- cumulative morphine dose-response curve on day 6 after chronic morphine treatment (Sprague-Dawley rats [2]; morphine 15 μg/day for 5 days): rightward shift
- magnitude of morphine effect with daily drug administration (Sprague-Dawley rats [2]; morphine 15 μg/day intrathecal for 5 days, 30 minutes after administration): progressively declined towards baseline value by day 5
- decline of the analgesic effect of morphine observed after the first injection, at the end of the 240 minute test period (Sprague-Dawley rats [3]; 3 successive doses of morphine 15 μg intrathecal at 90 minute intervals): ~80%
- increase in morphine ED50, paw pressure test (Sprague-Dawley rats [3]; [5]): 4 fold
- increase in morphine ED50, tail flick test (Sprague-Dawley rats [3]; [5]): ~5 fold
- cumulative morphine dose-response curve 24 hours after repeated morphine injections (Sprague-Dawley rats [3]; morphine 15 μg x 3 at 90 minute intervals, relative to saline treatment): shifted to the right; also recorded: parallel right shift
- ED50 value of morphine, paw pressure test (Sprague-Dawley rats [3]; [6]): ~7 µg and ~8 µg
- ED50 value of morphine, tail flick test (Sprague-Dawley rats [3]; [6]): ~5 µg
- morphine ED50, paw pressure test (Sprague-Dawley rats [4]; [7]): ~48 µg
- morphine ED50, tail flick test (Sprague-Dawley rats [4]; [7]): ~47 µg
- morphine ED50, paw pressure test (Sprague-Dawley rats [4]; [8]): ~8 µg
- morphine ED50, tail flick test (Sprague-Dawley rats [4]; [8]): ~6 µg
- acute morphine dose-response curve relative to morphine and atipemazole group (Sprague-Dawley rats [4]; morphine 15 μg alone for 10 days, day 11): displaced to the right

Structure (SMILES): COc1cc2nc(N3CCN(C(=O)c4ccco4)CC3)nc(N)c2cc1OC [prazoin]
- development of tolerance to morphine analgesia (mice): suppress the development of tolerance

Structure (SMILES): CC(C)NCC(O)COc1cccc2ccccc12 (centres unmarked) [propranolol]
- development of tolerance to morphine analgesia (mice): suppress the development of tolerance

Structure (SMILES): c1ccc2c(c1)OCC(C1=NCCN1)O2 (centres unmarked) [idazoxan]
- effect on morphine analgesia, both tail flick and paw pressure tests (Sprague-Dawley rats [1]; [9]): significantly extended morphine analgesia
- effect on peak morphine analgesia, paw pressure test (Sprague-Dawley rats [1]; [9]): augmented peak morphine analgesia
- effect on peak clonidine analgesia, tail flick test (spinal alpha-2 receptors; idazoxan 10 μg with clonidine 13.3 μg intrathecal): decreased significantly
- effect on the shift of the morphine dose-response curve, both tail flick and paw pressure tests (Sprague-Dawley rats [3]; idazoxan 0.008 ng, 0.016 ng with morphine 15 μg x 3): prevented the rightward shift
- effect on the increase in morphine ED50, both tail flick and paw pressure tests (Sprague-Dawley rats [3]; idazoxan 0.008, 0.016 and 0.08 ng co-injection with morphine 15 μg x 3): prevented the increase in ED50
- analgesic response to repeated administration alone (Sprague-Dawley rats [3]; idazoxan alone at 0.008 and 0.016 ng, injected at 90 minute intervals): no significant analgesic response
- effect on peak morphine analgesia, tail flick test (Sprague-Dawley rats [3]; idazoxan lowest dose 0.008 ng with morphine 15 μg x 3): reduced the peak morphine analgesia
- effect on the decline of morphine analgesia, paw pressure test (Sprague-Dawley rats [3]; [10]): arrested the decline of the analgesic effect
- effect on the decline of morphine analgesia, tail flick test (Sprague-Dawley rats [3]; [10]): less effective at arresting the decline
- development of acute tolerance to morphine (Sprague-Dawley rats [3]): very effectively inhibit

Structure (SMILES): CN1CCN2c3ncccc3Cc3ccccc3C2C1 (centres unmarked) [mirtazapine]
- effect on peak morphine analgesia, tail flick test (Sprague-Dawley rats [1]; mirtazapine 0.2 ng with morphine 15 μg intrathecal): reduced the peak morphine analgesia
- effect on morphine analgesia, paw pressure test (Sprague-Dawley rats [1]; mirtazapine 0.02 and 0.2 ng with morphine 15 μg intrathecal): significantly extended morphine analgesia
- effect on duration of morphine analgesia, tail flick test (Sprague-Dawley rats [1]; mirtazapine 0.02 and 0.2 ng with morphine 15 μg intrathecal, particularly at 0.02 ng): extended morphine analgesia
- effect on clonidine analgesia, paw pressure test (spinal alpha-2 receptors; 10 μg with clonidine 13.3 μg intrathecal (FIG. 28B)): almost abolished
- effect on clonidine analgesia, paw pressure test (spinal alpha-2 receptors; [11]): almost abolished
- effect on peak clonidine analgesia, tail flick test (spinal alpha-2 receptors; [11]): decreased significantly
- effect on the increase in morphine ED50, paw pressure test (Sprague-Dawley rats [3]; [12]): completely prevented the increase in ED50
- effect on the increase in morphine ED50, tail flick test (Sprague-Dawley rats [3]; [12]): partially prevented the increase in ED50
- effect on peak morphine analgesia, tail flick test (Sprague-Dawley rats [3]; [13]): reduced the peak morphine analgesia
- effect on the decline of morphine analgesia, paw pressure test (Sprague-Dawley rats [3]; [13]): arrested the decline of the analgesic effect
- effect on the decline of morphine analgesia, tail flick test (Sprague-Dawley rats [3]; [13]): less effective at arresting the decline
- effect on the shift of the morphine dose-response curve, paw pressure test (Sprague-Dawley rats [3]; [13]): prevented the rightward shift
- morphine dose-response curves of morphine and morphine-mirtazapine groups, tail flick test (Sprague-Dawley rats [3]; [13]): showed an overlap at upper dose range of the opioid agonist
- prevention of the right shift of the morphine dose response curve, paw pressure vs tail flick test (Sprague-Dawley rats [3]; single mirtazapine dose 0.02 ng 30 minutes prior to morphine 15 μg x 3): more effective in the paw pressure test at preventing the right shift
- effect on the increase in morphine ED50, paw pressure test (Sprague-Dawley rats [3]; [14]): completely prevented the increase in ED50
- effect on the increase in morphine ED50, tail flick test (Sprague-Dawley rats [3]; [14]): partially prevented the increase in ED50
- development of acute tolerance to morphine (Sprague-Dawley rats [3]): very effectively inhibit

Structure (SMILES): COCCc1ccc(OCC(O)CNC(C)C)cc1 (centres unmarked) [metoprolol]
- development of tolerance to morphine analgesia (mice): suppress the development of tolerance

Structure (SMILES): C=CCN1CC[C@]23c4c5ccc(O)c4O[C@H]2C(=O)CC[C@@]3(O)[C@H]1C5 [naloxone]
- effect on alpha-2 receptor agonist analgesia (mouse): does not affect

Structure (SMILES): Cc1ccc(N(CC2=NCCN2)c2cccc(O)c2)cc1 [phentolamine]
- development of tolerance to morphine analgesia (mice): suppress the development of tolerance
